Columns and labels:
[1] = Stability in mouse spleen homogenate and its final extract; assay type: in vitro ADME
Method: (§1) After weighing the complete organ, a volume of 3 mL of this solution was added to the liver and small intestine, 2 mL to the kidneys, and 1 mL to the brain and spleen. The tissue/BSA ratio (w/v) of the homogenates were approximately 0.4:1 for the brain and liver, 0.1:1 for the spleen, 0.2:1 for the kidneys, and 0.25:1 for the small intestine. All samples were shaken in the Fast Prep at 6.0 m/s during 60 s. The stability of each analyte was investigated in all the previously mentioned matrices. For plasma (both human and mouse), the stability was determined in triplicate at two concentration levels, QC L and QC H, whereas for mouse tissue homogenates only at QC M (except the brain in one stability condition). For all matrices, the following stability conditions were assessed: short term at room temperature (RT), long term at − 20 °C, and after 3 freeze-thaw (F/T) cycles at − 20 °C/RT. Furthermore, for tissue homogenates, the short-term stability in ice-water, long-term stability at − 70 °C, and F/T stability at − 70 °C/ice-water were also evaluated. Additionally, the stability in the final extract was tested. For this, the QC L and QC H final extracts from the plasma, brain, and spleen and the QC M final extract from the liver, kidney and small intestine were stored at 4–8 °C up to 3 days. Lastly, the stability of the stock solutions at − 20 °C was investigated.

[2] = Stability in tissue homogenates; assay type: in vitro ADME, mouse; conditions: all tissue homogenates and conditions of Table 6
Method: as §1, with “The” for “After weighing the complete organ, a volume of 3 mL of this solution was added to the liver and small intestine, 2 mL to the kidneys, and 1 mL to the brain and spleen. The tissue/BSA ratio (w/v) of the homogenates were approximately 0.4:1 for the brain and liver, 0.1:1 for the spleen, 0.2:1 for the kidneys, and 0.25:1 for the small intestine. All samples were shaken in the Fast Prep at 6.0 m/s during 60 s. The”

[3] = Stability of stock solutions at − 20 °C; assay type: physicochemical; conditions: 1 mg/mL stock solution, storage at − 20 °C
Method: as §1, with “The” for “After weighing the complete organ, a volume of 3 mL of this solution was added to the liver and small intestine, 2 mL to the kidneys, and 1 mL to the brain and spleen. The tissue/BSA ratio (w/v) of the homogenates were approximately 0.4:1 for the brain and liver, 0.1:1 for the spleen, 0.2:1 for the kidneys, and 0.25:1 for the small intestine. All samples were shaken in the Fast Prep at 6.0 m/s during 60 s. The”

[4] = Stability in mouse brain homogenate and its final extract; assay type: in vitro ADME
Method: as §1

[5] = Stability in mouse kidney homogenate and its final extract; assay type: in vitro ADME; conditions: nominal 50 ng/mL
Method: as §1

[6] = spleen homogenate, 3 F/T (− 70 °C, ice/water bath), nominal 50 ng/mL
[7] = spleen homogenate, LT − 70 °C, 1 m, nominal 50 ng/mL
[8] = spleen homogenate, RT, 3 h, nominal 50 ng/mL
[9] = spleen homogenate, ice/water bath, 3 h, nominal 50 ng/mL
[10] = brain homogenate, 3 F/T (RT, − 20 °C), nominal 50 ng/mL
[11] = brain homogenate, 3 F/T (− 70 °C, ice/water bath), nominal 50 ng/mL
[12] = brain homogenate, LT − 20 °C, 1 m, nominal 50 ng/mL
[13] = brain homogenate, LT − 70 °C, 1 m, nominal 50 ng/mL
[14] = brain homogenate, RT, 1 d, nominal 5 ng/mL
[15] = brain homogenate, RT, 1 d, nominal 150 ng/mL
[16] = brain homogenate, ice/water bath, 3 h, nominal 50 ng/mL
[17] = final extract (listed under brain homogenate), 4–8 °C, 3 d, nominal 150 ng/mL
[18] = kidney homogenate, 3 F/T (− 70 °C, ice/water bath)
[19] = kidney homogenate, LT − 70 °C, 1 m

CCN1CCN(Cc2ccc(Nc3ncc(F)c(-c4cc(F)c5nc(C)n(C(C)C)c5c4)n3)nc2)CC1 [Abemaciclib]
Mean concentration ([1]; final extract (listed under spleen homogenate), 4–8 °C, 3 d, nominal 150 ng/mL): 156.3 ng/mL | Mean concentration ([1]; spleen homogenate, 3 F/T (RT, − 20 °C), nominal 50 ng/mL): 48.7 ng/mL | Accuracy (% Bias) [1, 6]: 12.1% | Mean concentration [1, 6]: 56.1 ng/mL | Mean concentration ([1]; spleen homogenate, LT − 20 °C, 1 m, nominal 50 ng/mL): 48.6 ng/mL | Accuracy (% Bias) [1, 7]: 3.5% | Mean concentration [1, 7]: 51.8 ng/mL | Accuracy (% Bias) [1, 8]: 3.4% | Mean concentration [1, 8]: 51.7 ng/mL | Mean concentration ([1]; spleen homogenate, RT, 1 d, nominal 50 ng/mL): 46.5 ng/mL | Accuracy (% Bias) [1, 9]: 4.9% | Mean concentration [1, 9]: 52.4 ng/mL | stability in tissue homogenates (in words) [2]: stable in all matrices at all conditions | stability of stock solutions (time stable) [3]: at least 12 months | Accuracy (% Bias) [4, 10]: 6.9% | Mean concentration [4, 10]: 53.4 ng/mL | Accuracy (% Bias) [4, 11]: 2.2% | Mean concentration [4, 11]: 51.1 ng/mL | Accuracy (% Bias) [4, 12]: 3.9% | Mean concentration [4, 12]: 52.0 ng/mL | Accuracy (% Bias) [4, 13]: 4.3% | Mean concentration [4, 13]: 52.1 ng/mL | Accuracy (% Bias) [4, 14]: 6.2% | Mean concentration [4, 14]: 5.3 ng/mL | Accuracy (% Bias) [4, 15]: 11.3% | Mean concentration [4, 15]: 167 ng/mL | Accuracy (% Bias) [4, 16]: 10.4% | Mean concentration [4, 16]: 55.2 ng/mL | Mean concentration ([4]; final extract (listed under brain homogenate), 4–8 °C, 3 d, nominal 5 ng/mL): 4.9 ng/mL | Accuracy (% Bias) [4, 17]: 8.7% | Mean concentration [4, 17]: 163 ng/mL | Mean concentration ([5]; final extract (listed under kidney homogenate), 4–8 °C, 2 d): 48.8 ng/mL | Mean concentration ([5]; kidney homogenate, 3 F/T (RT, − 20 °C)): 49.5 ng/mL | Accuracy (% Bias) [5, 18]: 3.6% | Mean concentration [5, 18]: 51.8 ng/mL | Mean concentration ([5]; kidney homogenate, LT − 20 °C, 1 m): 49.0 ng/mL | Accuracy (% Bias) [5, 19]: 5.5% | Mean concentration [5, 19]: 52.7 ng/mL | Accuracy (% Bias) ([5]; kidney homogenate, RT, 3 h): 1.7% | Mean concentration ([5]; kidney homogenate, RT, 3 h): 50.9 ng/mL | Mean concentration ([5]; kidney homogenate, RT, 1 d): 43.3 ng/mL | Mean concentration ([5]; kidney homogenate, ice/water bath, 3 h): 49.3 ng/mL

Source: paper PMC6647725 (Analytical and Bioanalytical Chemistry, 2019)
